Results as given in patent US20200079766A1, “MONOCYCLIC OGA INHIBITOR COMPOUNDS” (Janssen Pharmaceutica NV, priority 2016, published 2020).
Read-outs that look alike come from different tables or passages of the source.

Legend:
[1] = target: T1, recombinant human Meningioma Expressed Antigen 5 (MGEA5), also referred to as O-GlcNAcase (OGA) (Homo sapiens, UniProt O60502); test: OGA biochemical assay: inhibition of FM-GlcNAc hydrolysis, fluorescence; protocol A (10 nM OGA, 1 h) or protocol B (2 nM OGA, 6 h); conditions: for IC50: read-out: Enzymatic hOGA, pIC50 (converted)
T1 construct: Full length OGA enzyme was purchased at OriGene (cat # TP322411); purchased OriGene TP322411
T1 sequence (O60502 1-916): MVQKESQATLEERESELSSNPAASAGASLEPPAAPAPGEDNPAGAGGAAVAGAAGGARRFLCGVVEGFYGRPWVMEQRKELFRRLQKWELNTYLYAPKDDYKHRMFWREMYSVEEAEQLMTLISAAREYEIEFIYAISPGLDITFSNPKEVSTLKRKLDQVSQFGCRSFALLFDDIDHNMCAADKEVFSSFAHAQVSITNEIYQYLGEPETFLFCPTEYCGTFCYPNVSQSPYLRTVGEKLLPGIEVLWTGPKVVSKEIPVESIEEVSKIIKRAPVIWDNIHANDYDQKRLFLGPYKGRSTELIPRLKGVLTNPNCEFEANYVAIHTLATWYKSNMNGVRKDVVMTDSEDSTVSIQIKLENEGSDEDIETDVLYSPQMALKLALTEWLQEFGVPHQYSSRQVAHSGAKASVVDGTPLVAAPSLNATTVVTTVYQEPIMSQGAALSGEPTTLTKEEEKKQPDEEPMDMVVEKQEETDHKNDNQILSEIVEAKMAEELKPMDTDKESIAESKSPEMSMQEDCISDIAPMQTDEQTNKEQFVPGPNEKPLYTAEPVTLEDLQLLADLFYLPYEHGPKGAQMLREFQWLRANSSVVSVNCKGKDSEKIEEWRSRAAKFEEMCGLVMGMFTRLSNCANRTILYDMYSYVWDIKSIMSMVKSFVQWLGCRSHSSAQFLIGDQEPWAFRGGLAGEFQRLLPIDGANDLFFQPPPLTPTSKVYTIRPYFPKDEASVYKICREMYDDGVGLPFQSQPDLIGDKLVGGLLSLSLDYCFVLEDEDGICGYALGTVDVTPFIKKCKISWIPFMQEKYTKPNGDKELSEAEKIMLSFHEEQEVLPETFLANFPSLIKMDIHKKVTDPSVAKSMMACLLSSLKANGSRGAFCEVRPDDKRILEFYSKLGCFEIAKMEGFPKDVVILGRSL
Excerpt: The assay is based on the inhibition of the hydrolysis of fluorescein mono-3-D-N-Acetyl-Glucosamine (FM-GlcNAc) (Mariappa et al. 2015, Biochem J 470:255) by the recombinant human Meningioma Expressed Antigen 5 (MGEA5), also referred to as O-GlcNAcase (OGA). The hydrolysis FM-GlcNAc (Marker Gene technologies, cat # M1485) results in the formation of ß-D-N-glucosamineacetate and fluorescein. The fluorescence of the latter can be measured at excitation wavelength 485 nm and emission wavelength 538 nm. An increase in enzyme activity results in an increase in fluorescence signal. Full length OGA enzyme was purchased at OriGene (cat # TP322411). The enzyme was stored in 25 mM Tris.HCl, pH 7.3, 100 mM glycine, 10% glycerol at −20° C. Thiamet G and GlcNAcStatin were tested as reference compounds (Yuzwa et al. 2008 Nature Chemical Biology 4:483; Yuzwa et al. 2012 Nature Chemical Biology 8:393). The assay was performed in 200 mM Citrate/phosphate buffer supplemented with 0.005% Tween-20. 35.6 g Na2HPO42H2O (Sigma, # C0759) were dissolved in 1 L water to obtain a 200 mM solution. 19.2 g citric acid (Merck, #1.06580) was dissolved in 1 L water to obtain a 100 mM solution. pH of the sodiumphosphate solution was adjusted with the citric acid solution to 7.2. The buffer to stop the reaction consists of a 500 mM Carbonate buffer, pH 11.0. 734 mg
FM-GlcNAc were dissolved in 5.48 mL DMSO to obtain a 250 mM solution and was stored at −20° C. OGA was used at a 10 nM (protocol A) or 2 nM (protocol B) concentration and FM-GlcNAc at a 100 uM final concentration. Dilutions were prepared in assay buffer.
50 nl of a compound dissolved in DMSO was dispensed on Black Proxiplate™ 384 Plus Assay plates (Perkin Elmer, #6008269) and 3 μl fl-OGA enzyme mix added subsequently. Plates were pre-incubated for 60 min at room temperature and then 2 μl FM-GlcNAc substrate mix added. […] Plates were briefly centrifuged for 1 min at 1000 rpm and incubate at room temperature for 1 h (10 nM OGA, protocol A) or 6 h (2 nM OGA, protocol B). To stop the reaction 5 μl STOP buffer were added and plates centrifuge again 1 min at 1000 rpm. Fluorescence was quantified in the Thermo Scientific Fluoroskan Ascent or the PerkinElmer EnVision with excitation wavelength 485 nm and emission wavelength 538 nm.
For analysis a best-fit curve is fitted by a minimum sum of squares method. From this an IC50 value and Hill coefficient was obtained. High control (no inhibitor) and low control (saturating concentrations of standard inhibitor) were used to define the minimum and maximum values.

[2] = system: OGA in HEK293 cells inducible for P301L mutant human Tau (isoform 2N4R); test: OGA cellular assay: immunocytochemical detection of O-GlcNAcylated proteins (CTD110.6 antibody) after 6 h incubation; assay type: cell-based; conditions: for Emax / EC50: Homo sapiens, HEK293, 6 h; for Emax / Cellular Emax (%): maximum = Thiamet G 200 uM; for EC50: read-out: Cellular hOGA, pEC50 (converted)
Procedure: HEK293 cells inducible for P301L mutant human Tau (isoform 2N4R) were established at Janssen. Thiamet-G was used for both plate validation (high control) and as reference compound (reference EC50 assay validation). OGA inhibition is evaluated through the immunocytochemical (ICC) detection of O-GlcNAcylated proteins by the use of a monoclonal antibody (CTD110.6; Cell Signaling, #9875) detecting O-GlcNAcylated residues as previoulsy described (Dorfmueller et al. 2010 Chemistry & biology, 17:1250). Inhibition of OGA will result in an increase of O-GlcNAcylated protein levels resulting in an increased signal in the experiment. Cell nuclei are stained with Hoechst to give a cell culture quality control and a rough estimate of immediate compounds toxicity, if any. ICC pictures are imaged with a Perkin Elmer Opera Phenix plate microscope and quantified with the provided software Perkin Elmer Harmony 4.1.
Cells were propagated in DMEM high Glucose (Sigma, # D5796) following standard procedures. 2 days before the cell assay cells are split, counted and seeded in Poly-D-Lysine (PDL) coated 96-wells (Greiner, #655946) plate at a cell density of 12,000 cells per cm^2 (4,000 cells per well) in 100 μl of Assay Medium (Low Glucose medium is used to reduce basal levels of GlcNAcylation) (Park et al. 2014 The Journal of biological chemistry 289:13519). At the day of compound test medium from assay plates was removed and replenished with 90 μl of fresh Assay Medium. 10 μl of compounds at a 10 fold final concentration were added to the wells. Plates were centrifuged shortly before incubation in the cell incubator for 6 hours. DMSO concentration was set to 0.2%. Medium is discarded by applying vacuum. For staining of cells medium was removed and cells washed once with 100 μl D-PBS (Sigma, # D8537). From next step onwards unless other stated assay volume was always 50 μl and incubation was performed without agitation and at room temperature. Cells were fixed in 50 μl of a 4% paraformaldehyde (PFA, Alpha aesar, #043368) PBS solution for 15 minutes at room temperature. […] Before analysis samples were washed 2 times manually for 5 minutes in ICC base buffer.
Imaging is performed using Perkin Elmer Phenix Opera using a water 20× objective and recording 9 fields per well. Intensity readout at 488 nm is used as a measure of O-GlcNAcylation level of total proteins in wells. To assess potential toxicity of compounds nuclei were counted using the Hoechst staining. IC50-values are calculated using parametric non-linear regression model fitting. As a maximum inhibition Thiamet G at a 200 uM concentration is present on each plate. In addition, a concentration response of Thiamet G is calculated on each plate.

[3] = Enzymatic protocol B (2 nM OGA, 6 h)
[4] = Enzymatic protocol A (10 nM OGA, 1 h)

| Structure (SMILES) | Emax [1, 3] | IC50 [1, 3] | Enzymatic Emax (%) [1, 3] | Enzymatic hOGA; pIC50 [1, 3] | Emax [1, 4] | IC50 [1, 4] | Emax [2] | EC50 [2] | Cellular hOGA; pEC50 [2] | Cellular Emax (%) [2] |
| --- | --- | --- | --- | --- | --- | --- | --- | --- | --- | --- |
| CC(=O)Nc1ncc([C@@H](C)N2CCC[C@@H](COc3cc(C)nc(C)c3)C2)s1 (single isomer, unassigned) [compound 137] |  | 0.955 nM | 102.2% |  |  |  |  |  | 8.83 | 94.7% |
| Cc1cc(O[C@@H]2CCCN(Cc3ccc4nccnc4c3)C2)cc(C)n1 [compound 18] | 97.9% | 417 nM |  |  |  |  | 12.4% | > 10000 nM |  |  |
| CC(=O)Nc1ncc(CN2CCCC(c3ccnc(C)c3)C2)s1 (stereo not drawn) [compound 6] | 101% | 27.5 nM |  |  |  |  | 98.7% | 27.5 nM |  |  |
| CC(=O)Nc1ncc(CN2CCC(Cc3cncnc3C)C2)s1 (stereo not drawn) [compound 103] | 103% | 46.8 nM |  |  |  |  | 86.9% | 132 nM |  |  |
| Cc1cc(N[C@@H]2CCCN(C(C)c3ccc4nccnc4c3)C2)cc(C)n1 (stereo partly drawn) [compound 11] | 101% | 25.7 nM |  |  |  |  | 65.2% | 4270 nM |  |  |
| Cc1cc(C[C@H]2CCN(C(C)c3ccc4nccnc4c3)C2)cc(C)n1 (mixture of isomers) [compound 100] | 97% | 427 nM |  |  |  |  | 23.1% | > 1000 nM |  |  |
| COc1cncc(CC2CCN(Cc3cnc(NC(C)=O)s3)C2)n1 (stereo not drawn) [compound 66] |  |  | 101% | 8.53 |  |  |  |  | 7.43 | 100.6% |
| CC(=O)Nc1ncc(C(C)N2CCCC(COc3cc(C)nc(C)c3)C2)s1 (racemic) [compound 133] | 101% | 3.89 nM |  |  |  |  | 98.9% | 11.2 nM |  |  |
| Cc1cc(O[C@@H]2CCCN(C(C)c3ccc4nccnc4c3)C2)cc(C)n1 (mixture of isomers) [compound 19] | 100% | 6.92 nM |  |  |  |  | 73.3% | 1380 nM |  |  |
| Cc1cc(C[C@H]2CCN(C(C)c3ccc4scnc4c3)C2)cc(C)n1 (mixture of isomers) [compound 88] |  |  |  |  |  |  | 50.7% | 603 nM |  |  |
| CC(=O)Nc1ncc(CN2CC[C@@H](Cc3ccc(C(F)(F)F)c(C)n3)C2)s1 [compound 36] | 99% | 56.2 nM |  |  |  |  |  |  |  |  |
| CC(=O)Nc1ncc(CN2CC[C@H](Cc3cncnc3)C2)s1 [compound 55] | 99.8% | 55 nM |  |  |  |  |  |  |  |  |

More lines, main results first:

| Emax [1, 3] | IC50 [1, 3] | Enzymatic Emax (%) [1, 3] | Enzymatic hOGA; pIC50 [1, 3] | Emax [1, 4] | IC50 [1, 4] | Structure (SMILES) | Emax [2] | EC50 [2] | Cellular hOGA; pEC50 [2] | Cellular Emax (%) [2] |
| --- | --- | --- | --- | --- | --- | --- | --- | --- | --- | --- |
| 124% | 4.68 nM |  |  |  |  | CC(=O)Nc1ncc(CN2CCC(Cc3cc(C)nc(C)c3)C2)s1 (stereo not drawn) [compound 30] | 99.2% | 13.2 nM |  |  |
| 102% | 2.88 nM |  |  |  |  | CC(=O)Nc1ncc(CN2CCC[C@H](Cc3cncc(C)n3)C2)s1 [compound 127] | 88.5% | 27.5 nM |  |  |
|  |  | 102.4% | 7.59 |  |  | CC(=O)Nc1ncc(CN2CC[C@H](Cc3cc(C)nc(C(F)(F)F)c3)C2)s1 [compound 76] |  |  | 7.56 | 92.3% |
| 103% | 30.9 nM |  |  |  |  | CC(=O)Nc1ncc(CN2CC[C@@H](Cc3cc(C)nc(F)c3)C2)s1 [compound 111] | 97.4% | 52.5 nM |  |  |
| 102% | 1.05 nM |  |  |  |  | CC(=O)Nc1ncc(CN2CCC[C@H](Cc3cc(C)nc(C)c3)C2)s1 [compound 28] | 106% | 4.47 nM |  |  |
| 96.9% | 40.7 nM |  |  |  |  | CC(=O)Nc1ncc(CN2CC[C@H](Cc3nnc(C)cc3C)C2)s1 [compound 47] | 61.6% | 288 nM |  |  |
| 102% | 53.7 nM |  |  |  |  | CC(=O)Nc1ncc(CN2CCCC(COc3cc(C)nc(C)c3)C2)o1 (stereo not drawn) [compound 138] | 74.2% | 437 nM |  |  |
| 101% | 25.7 nM |  |  |  |  | CC(=O)Nc1ncc(CN2CC[C@H](Cc3cc(C)cnn3)C2)s1 [compound 59] | 80.3% | 145 nM |  |  |
| 101% | 9.12 nM |  |  | 100% | 8.13 nM | CC(=O)Nc1ncc(CN2CCCC(Oc3cc(C)nc(C)c3)C2)s1 (stereo not drawn) [compound 14] | 118% | 112 nM |  |  |
|  |  | 100% | 7.77 |  |  | CC(=O)Nc1ncc(CN2CCC(Cc3ccc(C)nn3)C2)s1 (stereo not drawn) [compound 90] |  |  | 6.83 | 73.7% |
| 101% | 6.76 nM |  |  |  |  | CC(=O)Nc1ncc(CN2CCCC(COc3cc(C)nc(C)c3)C2)s1 (stereo not drawn) [compound 20] | 111% | 6.31 nM |  |  |
| 101% | 50.1 nM |  |  |  |  | CC(=O)Nc1ncc(CN2CCC[C@@H](Nc3cc(C)nc(C)c3)C2)s1 [compound 8] |  |  |  |  |
